Measured values from US10030047B2 (Hoffmann-La Roche Inc., priority 2015, dated 2018).

test system: A. baumannii strain ATCC17978; assay: 50% growth inhibitory concentration (IC50) determination, Iso-Sensitest broth; format: cell-based; settings: Acinetobacter baumannii; A. baumannii ATCC17978; Iso-Sensitest medium; OD 600 nm over 16 h; read-out: IC50 ATCC17978
How it was run: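 Twofold dilution series (e.g. 50 to 0.097 μM final) in Iso-Sensitest broth, inoculum ~5×10^(5) CFU/ml, incubated at 35±2° C. OD600 read every 20 min over 16 h; IC50 and IC90 calculated during logarithmic growth.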

IC50 [µM]	SMILES
< 0.1	CN1C(=O)[C@H](CCCCN)NC(=O)[C@H](CCCN)NCc2cccnc2Sc2c(Cl)ccc(-c3ccc(C(=O)NCCO)cc3)c2CNC(=O)[C@@H]1Cc1c[nH]c2ccccc12 [Example 247, 4-[(11S,14S,17S)-14-(4-Amino-butyl)-11-(3-amino-propyl)-25-chloro-17-(1H-indol-3-ylmethyl)-16-methyl-12,15,18-trioxo-2-thia-4,10,13,16,19-pentaaza-tricyclo[19.4.0.0*3,8*]pentacosa-1(25),3(8),4,6,21,23-hexaen-22-yl]-N-(2-hydroxy-ethyl)-benzamide]
< 0.1	CN(C)CCNC(=O)c1ccc(-c2ccc(Cl)c3c2CNC(=O)[C@H](Cc2c[nH]c4ccccc24)N(C)C(=O)[C@H](CCCCN)NC(=O)[C@H](CCCN)NCc2cccnc2S3)cc1 [Example 248, 4-[(11S,14S,17S)-14-(4-Amino-butyl)-11-(3-amino-propyl)-25-chloro-17-(1H-indol-3-ylmethyl)-16-methyl-12,15,18-trioxo-2-thia-4,10,13,16,19-pentaaza-tricyclo[19.4.0.0*3,8*]pentacosa-1(25),3(8),4,6,21,23-hexaen-22-yl]-N-(2-dimethylamino-ethyl)-benzamide]
< 0.1	CN1C(=O)[C@H](CCCCN)NC(=O)[C@H](CCCN)NCc2cccnc2Sc2c(Cl)ccc(-c3ccc(C(=O)NCCN4CCOCC4)cc3)c2CNC(=O)[C@@H]1Cc1c[nH]c2ccccc12 [Example 249, 4-[(11S,14S,17S)-14-(4-Amino-butyl)-11-(3-amino-propyl)-25-chloro-17-(1H-indol-3-ylmethyl)-16-methyl-12,15,18-trioxo-2-thia-4,10,13,16,19-pentaaza-tricyclo[19.4.0.0*3,8*]pentacosa-1(25),3(8),4,6,21,23-hexaen-22-yl]-N-(2-morpholin-4-yl-ethyl)-benzamide]
< 0.1	CN1C(=O)[C@H](CCCCN)NC(=O)[C@H](CCCN)NCc2cccnc2Sc2c(Cl)ccc(-c3ccc(C4CCNCC4)cc3)c2CNC(=O)[C@@H]1Cc1c[nH]c2ccccc12 [Example 250, (11S,14S,17S)-14-(4-Amino-butyl)-1-(3-amino-propyl)-25-chloro-17-(1H-indol-3-ylmethyl)-16-methyl-22-(4-piperidin-4-yl-phenyl)-2-thia-4,10,13,16,19-pentaaza-tricyclo[19.4.0.0*3,8*]pentacosa-1(25),3(8),4,6,21,23-hexaene-12,15,18-trione]
< 0.1	CNCCCC[C@@H]1NC(=O)[C@H](CCCN)NCc2cccnc2Sc2c(Cl)cc(Cl)cc2CNC(=O)[C@H](Cc2c[nH]c3ccccc23)N(C)C1=O [Example 251, (11S,14S,17S)-11-(3-Amino-propyl)-23,25-dichloro-17-(1H-indol-3-ylmethyl)-16-methyl-14-(4-methylamino-butyl)-2-thia-4,10,13,16,19-pentaaza-tricyclo[19.4.0.0*3,8*]pentacosa-1(25),3(8),4,6,21,23-hexaene-12,15,18-trione]

SMILES	IC50 [µM]
CN1C(=O)[C@H](CCCCN)NC(=O)[C@H](CCCO)NCc2cccnc2Sc2c(Cl)cc(Cl)cc2CNC(=O)[C@@H]1Cc1c[nH]c2ccccc12 [Example 252, (11S,14S,17S)-14-(4-Amino-butyl)-23,25-dichloro-11-(3-hydroxy-propyl)-17-(1H-indol-3-ylmethyl)-16-methyl-2-thia-4,10,13,16,19-pentaaza-tricyclo[19.4.0.0*3,8*]pentacosa-1(25),3(8),4,6,21,23-hexaene-12,15,18-trione]	0.5
CCCC[C@@H]1NC(=O)[C@H](CCCN)NCc2cccnc2Sc2c(Cl)cc(Cl)cc2CNC(=O)[C@H](Cc2c[nH]c3ccccc23)N(C)C1=O [Example 253, (11S,14S,17S)-11-(3-Amino-propyl)-14-butyl-23,25-dichloro-17-(1H-indol-3-ylmethyl)-16-methyl-2-thia-4,10,13,16,19-pentaaza-tricyclo[19.4.0.0*3,8*]pentacosa-1(25),3(8),4,6,21,23-hexaene-12,15,18-trione]	4.2
